From patent publication US12060349B2, “Glucosylceramide synthase inhibitors” (Genzyme Corporation, priority 2012, dated 2024)
Read-outs that look alike come from different tables or passages of the source.

Key:
[1] = target: T1, glucosylceramide synthase (Homo sapiens, UniProt Q16739); test: microsomal assay measuring conversion of ceramide to glucosylceramide by HPLC (GCS IC50); type: biochemical; conditions: concentration causing 50% inhibition of glucosylceramide synthase activity
T1 construct: Microsomes were isolated from A375 human melanoma cells; endogenous in cells; host or cells: A375 human melanoma cells (microsomal fraction, 100,000 g pellet)
T1 sequence (Q16739 1-394): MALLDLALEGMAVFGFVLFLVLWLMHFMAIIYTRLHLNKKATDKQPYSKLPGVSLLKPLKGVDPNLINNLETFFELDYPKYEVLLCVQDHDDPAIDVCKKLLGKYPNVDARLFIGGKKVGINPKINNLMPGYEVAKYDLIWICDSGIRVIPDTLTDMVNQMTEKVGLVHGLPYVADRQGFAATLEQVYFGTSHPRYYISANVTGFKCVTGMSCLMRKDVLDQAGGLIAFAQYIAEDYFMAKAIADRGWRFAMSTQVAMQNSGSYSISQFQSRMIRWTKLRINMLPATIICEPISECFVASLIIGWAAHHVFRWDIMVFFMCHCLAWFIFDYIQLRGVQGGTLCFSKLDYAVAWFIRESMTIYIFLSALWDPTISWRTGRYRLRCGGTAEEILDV
Outline: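 IC50 is the compound concentration halving glucosylceramide synthase activity. Activity was measured in microsomes, with HPLC quantifying glucosylceramide formed from ceramide.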

[2] = tested on: GM3 expression on the cell surface, B16 mouse melanoma cells; test: cell based phenotypic assay, cell surface GM3 by antibody mediated immunofluorescence, B16 (GM3 B16 IC50); conditions: 50% inhibition of GM3 expression on the cell surface
Outline: (§1)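 B16 mouse and C32 human melanoma cells; cell-surface GM3 measured by antibody-mediated immunofluorescence, giving IC50.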

[3] = tested on: GM3 expression on the cell surface, C32 human melanoma cells; test: cell based phenotypic assay, cell surface GM3 by antibody mediated immunofluorescence, C32 (GM3 C32 IC50); conditions: 50% inhibition of GM3 expression on the cell surface
Outline: as §1

C32 human melanoma cells = test: cell viability in the C32 cell-based assay (Viability, C32 IC50); conditions: concentration causing 50% cell death, values greater than 10 represent a lack of cell death
Outline: (§2)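 Cell death was scored within the cell-based GM3 experiment for each line. The viability value is the concentration producing 50% death, and numbers exceeding 10 signify no cytotoxicity.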

B16 mouse melanoma cells = test: cell viability in the B16 cell-based assay (Viability, B16 IC50)
Outline: as §2

[4] = B16 mouse melanoma cells, read-out: GM3 B16 IC50
[5] = C32 human melanoma cells, read-out: GM3 C32 IC50
[6] = C32 cells, read-out: Viability, C32 IC50
[7] = Mus musculus, B16, B16 cells, concentration causing 50% cell death, values greater than 10 represent a lack of cell death, read-out: Viability, B16 IC50
[8] = Mus musculus, B16 mouse melanoma cells, read-out: GM3 B16 IC50
[9] = Homo sapiens, C32 human melanoma cells, read-out: GM3 C32 IC50
[10] = Homo sapiens, C32, C32 cells, read-out: Viability, C32 IC50
[11] = Mus musculus, read-out: GM3 B16 IC50, B16 mouse melanoma cells
[12] = Homo sapiens, read-out: GM3 C32 IC50, C32 human melanoma cells
[13] = Homo sapiens, C32, read-out: Viability, C32 IC50, C32 cells
[14] = Mus musculus, B16, read-out: Viability, B16 IC50

IC50 [1] [nM] | IC50 [2, 8] [nM] | IC50 [3, 9] [nM] | SMILES | IC50 (B16 mouse melanoma cells; [7]) [nM] | IC50 (C32 human melanoma cells; [10]) [nM] | further results
10.2 | 1370 | 13.2 | CNC(=O)c1cccc(Oc2cccc(C(C)(C)NC(=O)NC3(C)CCN4CCC3CC4)c2)c1 (centres unmarked) [Example 297, N-Methyl-3-(3-(2-(3-(4-methyl-1-aza-bicyclo[3.2.2]nonan-4-yl)ureido)propan-2-yl)phenoxy)benzamide] | ≥ 10000 | 1000 | –
138 | 1100 | 30.8 | CNC(=O)c1cccc(Oc2cccc(C(C)(C)NC(=O)OC3CCN4CCC3CC4)c2)c1 (centres unmarked) [Example 298, 1-Aza-bicyclo[3.2.2]nonan-4-yl 2-(3-(3-(methylcarbamoyl)phenoxy)phenyl)propan-2-ylcarbamate] | ≥ 10000 | 3160 | –
15.4 | 192 | 3.67 | CC(C)(NC(=O)OC1CCN2CCC1CC2)c1ccc(Oc2ccc(C(=O)N3CCCCC3)cc2)cc1 (centres unmarked) [Example 299, 1-Aza-bicyclo[3.2.2]nonan-4-yl 2-(4-(4-(piperidine-1-carbonyl)phenoxy)phenyl) propan-2-ylcarbamate] | ≥ 10000 | 1000 | –
6.85 | 87.6 | 1.54 | CC(C)(NC(=O)NC1(C)CCN2CCC1CC2)c1ccc(Oc2ccc(C(=O)N3CCCCC3)cc2)cc1 (centres unmarked) [Example 300, 1-(4-Methyl-1-aza-bicyclo[3.2.2]nonan-4-yl)-3-(2-(4-(4-(piperidine-1-carbonyl)phenoxy)phenyl)propan-2-yl)urea] | ≥ 10000 | 316 | –
17.2 | 49.4 | 3.39 | CC(C)(NC(=O)OC1CCN2CCC1CC2)c1ccc(Oc2ccc(C(=O)N3CCC(F)(F)CC3)cc2)cc1 (centres unmarked) [Example 301, 1-Azabicyclo[3.2.2]nonan-4-yl 2-(4-(4-(4,4-difluoropiperidine-1-carbonyl)phenoxy)phenyl)propan-2-ylcarbamate] | ≥ 10000 | 1000 | –
4.22 | 31.7 | 1.47 | CC(C)(NC(=O)NC1(C)CCN2CCC1CC2)c1ccc(Oc2ccc(C(=O)N3CCC(F)(F)CC3)cc2)cc1 (centres unmarked) [Example 302, 1-(2-(4-(4-(4,4-Difluoropiperidine-1-carbonyl)phenoxy)phenyl)propan-2-yl)-3-(4-methyl-1-azabicyclo[3.2.2]nonan-4-yl)urea] | ≥ 10000 | 1000 | –
7.63 | 38.9 | 1.24 | CC(C)(NC(=O)NC1(C)CCN2CCC1CC2)c1ccc(Oc2ccc(C(=O)N3CC(F)(F)C3)cc2)cc1 (centres unmarked) [Example 303, 1-(2-(4-(4-(3,3-Difluoroazetidine-1-carbonyl)phenoxy)phenyl)propan-2-yl)-3-(4-methyl-1-aza-bicyclo[3.2.2]nonan-4-yl)urea] | ≥ 10000 | 316 | –

Second part, the compound before the results:

SMILES | IC50 [1] [nM] | IC50 [2, 8] [nM] | IC50 [3, 9] [nM] | IC50 (B16 mouse melanoma cells; [7]) [nM] | IC50 (C32 human melanoma cells; [10]) [nM] | further results
CN(C)C(=O)c1ccc(Oc2ccc(C(C)(C)NC(=O)NC3(C)CCN4CCC3CC4)cc2)cc1 (centres unmarked) [Example 285, N,N-Dimethyl-4-(4-(2-(3-(4-methyl-1-azabicyclo[3.2.2]nonan-4-yl)ureido)propan-2-yl)phenoxy)benzamide] | 16.3 | – | – | ≥ 10000 | – | IC50 [2, 4]: 725 nM; IC50 [3, 5]: 6.48 nM; IC50 (C32 human melanoma cells; [6]): 1000 nM
CN(C)C(=O)c1ccc(Oc2ccc(C(C)(C)NC(=O)OC3CCN4CCC3CC4)cc2)cc1 (centres unmarked) [Example 286, 1-Azabicyclo[3.2.2]nonan-4-yl 2-(4-(4-(dimethylcarbamoyl)phenoxy)phenyl)propan-2-ylcarbamate] | 437 | 793 | 31.6 | ≥ 10000 | ≥ 10000 | –
CN(C)C(=O)c1ccc(Oc2ccc(C(C)(C)NC(=O)OC3CN4CCC3CC4)cc2)cc1 (centres unmarked) [Example 287, Quinuclidin-3-yl 2-(4-(4-(dimethylcarbamoyl)phenoxy)phenyl)propan-2-ylcarbamate] | 1330 | – | – | – | – | IC50 ([2]; read-out: GM3 B16 IC50, B16 mouse melanoma cells): 2200 nM; IC50 ([3]; read-out: GM3 C32 IC50, C32 human melanoma cells): 229 nM; IC50 (C32 human melanoma cells; read-out: Viability, C32 IC50, C32 cells): 3160 nM; IC50 (B16 mouse melanoma cells; read-out: Viability, B16 IC50, B16 cells, concentration causing 50% cell death, values greater than 10 represent a lack of cell death): ≥ 10000 nM
CN(C)C(=O)c1cccc(Oc2cccc(C(C)(C)NC(=O)OC3CCN4CCC3CC4)c2)c1 (centres unmarked) [Example 288, 1-Aza-bicyclo[3.2.2]nonan-4-yl 2-(3-(3-(dimethylcarbamoyl)phenoxy)phenyl)propan-2-ylcarbamate] | 203 | 1180 | 50.2 | ≥ 10000 | ≥ 10000 | –
CN(C)C(=O)c1cccc(Oc2cccc(C(C)(C)NC(=O)NC3(C)CN4CCC3CC4)c2)c1 (centres unmarked) [Example 289, N,N-Dimethyl-3-(3-(2-(3-(3-methylquinuclidin-3-yl)ureido)propan-2-yl)phenoxy)benzamide] | 104 | 1410 | 91.7 | 9260 | ≥ 10000 | –
CN(C)C(=O)c1ccc(Oc2ccc(C(C)(C)NC(=O)NC3(C)CCN4CCC3CC4)cc2)cc1 (centres unmarked) [Example 290, N,N-Dimethyl-4-(4-(2-(3-(4-methyl-1-aza-bicyclo[3.2.2]nonan-4-yl)ureido)propan-2-yl)phenoxy)benzamide] | 19.1 | – | – | – | – | IC50 [2, 4]: 2580 nM; IC50 [3, 5]: 26.8 nM; IC50 (C32 human melanoma cells; [6]): 3160 nM; IC50 (B16 mouse melanoma cells; B16 cells, concentration causing 50% cell death, values greater than 10 represent a lack of cell death, read-out: Viability, B16 IC50): ≥ 10000 nM
CNC(=O)c1ccc(Oc2ccc(C(C)(C)NC(=O)OC3CN4CCC3CC4)cc2)cc1 (centres unmarked) [Example 291, Quinuclidin-3-yl 2-(4-(4-(methylcarbamoyl)phenoxy)phenyl)propan-2-ylcarbamate] | 1910 | – | – | – | – | IC50 [2, 11]: 2310 nM; IC50 [3, 12]: 90.2 nM; IC50 (C32 human melanoma cells; [13]): 3160 nM; IC50 (B16 mouse melanoma cells; [14]): ≥ 10000 nM
CNC(=O)c1ccc(Oc2ccc(C(C)(C)NC(=O)OC3CCN4CCC3CC4)cc2)cc1 (centres unmarked) [Example 292, 1-Aza-bicyclo[3.2.2]nonan-4-yl 2-(4-(4-(methylcarbamoyl)phenoxy)phenyl)propan-2-ylcarbamate] | 207 | 1220 | 41.2 | ≥ 10000 | ≥ 10000 | –
CNC(=O)c1ccc(Oc2ccc(C(C)(C)NC(=O)NC3(C)CN4CCC3CC4)cc2)cc1 (centres unmarked) [Example 293, N-Methyl-4-(4-(2-(3-(3-methylquinuclidin-3-yl)ureido)propan-2-yl)phenoxy)benzamide] | 186 | 5370 | 46 | ≥ 10000 | 1000 | –
CNC(=O)c1ccc(Oc2ccc(C(C)(C)NC(=O)NC3(C)CCN4CCC3CC4)cc2)cc1 (centres unmarked) [Example 294, N-Methyl-4-(4-(2-(3-(4-methyl-1-aza-bicyclo[3.2.2]nonan-4-yl)ureido)propan-2-yl)phenoxy)benzamide] | 12.4 | 843 | 7.06 | ≥ 10000 | 1000 | –
CNC(=O)c1cccc(Oc2cccc(C(C)(C)NC(=O)NC3(C)CN4CCC3CC4)c2)c1 (centres unmarked) [Example 296, N-Methyl-3-(3-(2-(3-(3-methylquinuclidin-3-yl)ureido)propan-2-yl)phenoxy)benzamide] | 200 | 5470 | 155 | ≥ 10000 | ≥ 10000 | –
CC(C)(NC(=O)OC1CN2CCC1CC2)c1ccc(C(=O)N2CCN(c3ccccc3)CC2)cc1 (centres unmarked) [Example 304, Quinuclidin-3-yl 2-(4-(4-phenylpiperazine-1-carbonyl)phenyl)propan-2-ylcarbamate] | 1730 | – | – | – | – | IC50 [2, 11]: 355 nM; IC50 [3, 12]: 95.9 nM; IC50 (C32 human melanoma cells; [13]): ≥ 10000 nM; IC50 (B16 mouse melanoma cells; [14]): ≥ 10000 nM
